Source: US6461844B1, “Liver GalNAc-1-phosphate kinase” (The Board of Trustees of the University of Arkansas, priority 1995, dated 2002)

Experiments:
[1] = tested on: UDP-GlcNAc pyrophosphorylases; settings: UDP-GlcNAc = 100%; cited from earlier work
[2] = Acid lability of the phosphate group of sugar phosphates; format: physicochemical; settings: 0.05 N HCl, 100° C., up to 50 minutes
Procedure: A large amount of the radioactive product formed by the GalNAc kinase was isolated and purified on a DE-52 column, and this product was suspended in 0.05 N HCl and placed in a hot water bath at about 95° C. At various times, aliquots of the reaction mixture were removed, cooled, neutralized and passed through a column of DE-52 to determine whether the ^3H-GalNAc had lost its charge. Standards of Glc-6-P, Glc-1-P, GalNAc-1-P and GlcNAc-6-P were also subjected to the same hydrolysis conditions and were tested for their susceptibility to loss of phosphate.
The radioactive material was examined for purity and characterization by TLC chromatography on cellulose plates in 70% ethanol: 1 M ammonium acetate, pH 7.5 (7:3), or in 70% ethanol: 1 M ammonium acetate, pH 3.5 (7:3). The product was subjected to HPLC on the Dionex apparatus, using a column to separate various sugar phosphates from each other. Sugar-1-phosphates were distinguished from sugar-6-phosphates by their susceptibility to acid hydrolysis in 0.05 N HCl at 100° C. Sugar-1-phosphates are rapidly hydrolyzed whereas sugar-6-phosphates are stable. […]
The radioactive product from the ion exchange columns was suspended in 0.05 N HCl and heated at 100° C. for various periods of time. […] The amount of radioactivity that emerged in the wash was taken as a measure of removal of the phosphate group. […]

[3] = biological target: T1, GalNAc kinase (Sus scrofa, UniProt A0A287BB25); assay: Azido-ATP[32P] photoaffinity labeling of the purified kinase; format: binding, pig; settings: unlabeled nucleotide added
T1 construct: This enzyme was purified about 1400-fold from the cytosolic fraction of pig kidney; from tissue; host or cells: pig kidney cytosol
Procedure: The proteins were transferred to nitrocellulose membranes and exposed to film to detect the radioactive bands.
The purified enzyme fraction was incubated with azido-ATP[^32P], exposed to UV light and run on SDS gels. […] The product of the reaction was characterized as GalNAc-α-1-P by susceptibility of the phosphate group to mild acid hydrolysis, by its mobility on TLC and Dionex chromatography, and by high resolution NMR.
The GalNAc kinase was purified from the cytosolic fraction of pig kidney using the purification scheme described in the section above and outlined in Table I. Using this procedure, the kinase was purified about 1400-fold from crude extracts with a recovery of about 24%. […] In addition, the amount of label in that band increased with increasing amounts of the probe, and the labeling was inhibited by adding unlabeled ATP, but not by other nucleotides. […] Moreover, gel filtration of the native enzyme on Sephadex G-100 gave an activity peak in the region where proteins of about 48-51 kDa elute. Thus the native protein is probably a monomer of about 50 kDa molecular weight. Sufficient amounts of this protein band can be prepared to determine the amino acid sequence and to prepare antibodies.

[4] = biological target: T1, GalNAc kinase; assay: Phosphate donor specificity of GalNAc kinase; format: biochemical, pig; parameters: Radioactivity in Sugar-P: unit not given beside the values
[5] = biological target: T1, GalNAc kinase; assay: Effect of substrate concentration on GalNAc kinase activity (Km); format: biochemical, pig; settings: 300 μM GalNAc; Lineweaver-Burk; read-out: Km for ATP
Procedure: (§1) In FIG. 3A, various amounts of GalNAc were added to otherwise standard incubation mixtures containing 300 μM ATP, and the amount of GalNAc phosphorylated by the purified enzyme was determined. In FIG. 3B, the data was replotted by the method of Lineweaver and Burk. In FIG. 3C, various amounts of the other substrate, ATP, were added to otherwise standard incubation mixtures containing saturating (300 μM) levels of GalNAc and the amount of phosphorylation of GalNAc by the purified enzyme was determined.
(§2) GalNAc kinase activity was assayed in incubation mixtures of 200 μl containing the following components: [^3H]GalNAc (10,000 cpm), 1 μmole of ATP, 2 μmoles of MgCl2, 20 μmoles of Tris-HCl buffer, pH 7.5, and various amounts of the enzyme preparations to be assayed. Following an incubation for the appropriate time, the reaction was stopped by heating at 100° C. for 5 min., and the incubation mixture was applied to a column of DE-52. The column was washed with at least 5 column volumes of 10 mM (NH4)HCO3 buffer to remove unbound material, and then GalNAc phosphate was eluted with 500 mM ammonium bicarbonate. Aliquots of the wash and eluent were removed and assayed for their radioactive content by scintillation counting.

[6] = tested on: UDP-GlcNAc pyrophosphorylase; settings: partially purified enzyme; cited from earlier work
[7] = substrate: CC(=O)N[C@H]1C(O)O[C@H](CO)[C@H](O)[C@@H]1O; assay: Effect of substrate concentration on GalNAc kinase activity (Km); format: biochemical, pig; settings: other: 300 μM ATP; Lineweaver-Burk; pH 7.5
Procedure: as §1, §2

Molecule: CC(=O)N[C@H]1[C@@H](OP(=O)(O)OP(=O)(O)OC[C@H]2O[C@@H](n3ccc(=O)[nH]c3=O)[C@H](O)[C@@H]2O)O[C@H](CO)[C@@H](O)[C@@H]1O [UDP-GlcNAc]
- activity towards substrate [1]: 100%

Molecule: CC(=O)N[C@@H]1C(O)[C@H](O)[C@@H](COP(=O)(O)O)O[C@H]1O (stereo partly shown) [GlcNAc-6-phosphate]
- stability to acid hydrolysis [2]: quite stable

Molecule: Nc1ncnc2c1ncn2[C@@H]1O[C@H](COP(=O)(O)OP(=O)(O)OP(=O)(O)O)[C@@H](O)[C@H]1O [ATP]
- effect on labeling of the 50 kDa band by ATP[32P] photoaffinity probe [3]: inhibited
- activity as phosphate donor [4]: by far the best phosphate donor
- Radioactivity in Sugar-P ([4]; nucleotide added at 5 mM): 10,195
- Specific Activity ([4]; nucleotide added at 5 mM): 160.0 nmol/mg
- Km [5]: 100 µM

Molecule: CC(=O)N[C@H]1[C@@H](OP(=O)(O)OP(=O)(O)OC[C@H]2O[C@@H](n3ccc(=O)[nH]c3=O)[C@H](O)[C@@H]2O)O[C@H](CO)[C@H](O)[C@@H]1O [UDP-GalNAc]
- rate of pyrophosphorolysis relative to UDP-GlcNAc [6]: about 2.8%
- activity towards substrate [1]: 3%

B1: GalNAc kinase (Sus scrofa) (protein)
chain: MATEGPPVHQVQVAEHPRLLKLKEIFNSKFGSIPKFYVRAPGRVNIIGEHIDYCGYSVLPMAVEQDMLIAVEPVKTHTLQLANTNPLYPDFNTSADNIQIDKTKPLWHNYFLCGFKGIQEHFGLSNLIGMNCLVDGNIPPSSGLSSSSALVCCAGLVTLTVLGMNLSKVELAEICAKSERYIGTEGGGMDQSISFLAEEGTAKLIEFSPLRATDVKLPSGAVFVIANSCVEMNKAATSHFNIRVMECRLAAKLLAKHRSLQWDKVLRLEEVQAKLGVSLEEMLLITEDTLHPEPYSPEEVCQCLGISLQELKTQILSPNTQDVLTFKLYQRAKHVYSEAARVLQFKKICEEAPDDMVQLLGELMNQSHVSCRDMYECSCPELDQLVDICRKFGAQGSRLTGAGWGGCTVSIVLADKLPSFLANVHEAYYQKSGRSLAPEKQSLFATKPGGGALVFLEA
notes: This enzyme was purified about 1400-fold from the cytosolic fraction of pig kidney; from tissue; host or cells: pig kidney cytosol
- Km [7]: 50 µM
